Data taken from the supplement of paper PMC11061612.

Tests used:
Test in all cases: Bliss excess, mean over the matrix (fraction); higher = more synergy
[1] = system: CAL-148 (Breast Carcinoma)
Outline: (§1)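 Cell lines in DMEM/F12 or RPMI with 10% FBS were plated in 1536-well plates, held 24 hours at 37°C, 5% CO2, then given two-drug dose matrices for 72 hours (DMSO typically 0.2%). Viability was read by CellTiter-Glo 2.0 luminescence and scaled as inhibition from 0 (vehicle wells) to 1 (blank wells). Combination Emax is the second-highest inhibition in the matrix; Bliss excess is observed combination effect minus expected EA + EB − EA·EB, EA and EB being single-agent effects.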

[2] = system: CCRF-CEM (T-Lymphoblastic Leukemia)
Outline: as §1

[3] = system: COLO-205 (Colorectal Carcinoma)
Outline: as §1

[4] = system: CaR-1 (Colorectal Carcinoma)
Outline: as §1

[5] = system: DEL (T-Cell Non-Hodgkin's Lymphoma)
Outline: as §1

[6] = system: Daoy (Other Solid Carcinomas)
Outline: as §1

[7] = system: HCC1806 (Breast Carcinoma)
Outline: as §1

[8] = system: HOS (Osteosarcoma)
Outline: as §1

[9] = system: HT-1376 (Bladder Carcinoma)
Outline: as §1

[10] = system: Hs-578-T (Breast Carcinoma)
Outline: as §1

[11] = system: HuP-T4 (Pancreatic Carcinoma)
Outline: as §1

[12] = system: KP-1N (Pancreatic Carcinoma)
Outline: as §1

[13] = system: LU-135 (Small Cell Lung Carcinoma)
Outline: as §1

[14] = system: ME-1 (Acute Myeloid Leukemia)
Outline: as §1

[15] = system: NCI-H2085 (Non-Small Cell Lung Carcinoma)
Outline: as §1

[16] = system: RO82-W-1 (Thyroid Gland Carcinoma)
Outline: as §1

[17] = system: Ramos-2G6-4C10 (Burkitt's Lymphoma)
Outline: as §1

[18] = system: T98G (Glioblastoma)
Outline: as §1

[19] = system: TCCSUP (Bladder Carcinoma)
Outline: as §1

[20] = system: UM-UC-3 (Bladder Carcinoma)
Outline: as §1

Structure (SMILES)	Bliss excess [1]	Bliss excess [2]	Bliss excess [3]	Bliss excess [4]	Bliss excess [5]	Bliss excess [6]	Bliss excess [7]	Bliss excess [8]	Bliss excess [9]	Bliss excess [10]	Bliss excess [11]	Bliss excess [12]	Bliss excess [13]	Bliss excess [14]	Bliss excess [15]	Bliss excess [16]	Bliss excess [17]	Bliss excess [18]	Bliss excess [19]	Bliss excess [20]
COc1nnc2ccc(N3CCC(c4ccc(OCCN5CCN(C)C(=O)[C@H]5C)cc4)CC3)nn12 [AZD5153] + C[C@@H]1COCCN1C2=NC(=NC(=C2)C3(CC3)[S@](=N)(=O)C)C4=C5C=CNC5=NC=C4 [AZD6738] (first compound max 1 µM, 7x7, partner max 10 µM)	0.0315	-0.0178	-0.0115	0.0411	0.0007	-0.0356	0.0113	-0.0413	-0.0006	-0.0231	-0.028	0.131	0.0397	-0.0693	0.0107	0.0259	-0.0534	-0.0206	-0.0327	0.0647
Cn1cnc2c(F)c(Nc3ccc(Br)cc3Cl)c(C(=O)NOCCO)cc21 [Selumetinib] + C[C@@H]1COCCN1C2=NC(=NC(=C2)C3(CC3)[S@](=N)(=O)C)C4=C5C=CNC5=NC=C4 [AZD6738] (first compound max 10 µM, 7x7, partner max 10 µM)	-0.0407	-0.0108	0.0526	-0.069	0.0172	-0.0087	0.0496	-0.0613	-0.021	0.009	0.0891	-0.0061	0.0383	-0.0752	-0.0063	-0.0242	-0.0714	-0.0174	-0.0141	0.0057
CC1(C)CCC(CN2CCN(c3ccc(C(=O)NS(=O)(=O)c4ccc(NCC5CCOCC5)c([N+](=O)[O-])c4)c(Oc4cnc5[nH]ccc5c4)c3)CC2)=C(c2ccc(Cl)cc2)C1 [Venetoclax] + C=CCn1c(=O)c2cnc(Nc3ccc(N4CCN(C)CC4)cc3)nc2n1-c1cccc(C(C)(C)O)n1 [AZD1775] (first compound max 1 µM, partner max 1 µM)	0.0589	0.0922	-0.0661	-0.0159	-0.027	-0.0683	-0.026	-0.0335	-0.0226	-0.0347	-0.0443	-0.047	-0.0538	0.0289	-0.063	-0.0757	0.127	0.0648	-0.055	-0.0225
CC1(C)CCC(CN2CCN(c3ccc(C(=O)NS(=O)(=O)c4ccc(NCC5CCOCC5)c([N+](=O)[O-])c4)c(Oc4cnc5[nH]ccc5c4)c3)CC2)=C(c2ccc(Cl)cc2)C1 [Venetoclax] + C[C@@H]1COCCN1C2=NC(=NC(=C2)C3(CC3)[S@](=N)(=O)C)C4=C5C=CNC5=NC=C4 [AZD6738] (first compound max 1 µM, 7x7, partner max 10 µM)	-0.0501	0.0224	-0.0328	-0.0005	0.01	-0.028	-0.0665	-0.0099	-0.0365	-0.122	-0.037	-0.0217	0.0538	0.0345	0.0309	-0.0504	-0.0389	-0.061	-0.1	-0.0296
CN(CCO)CC[C@H](CSc1ccccc1)Nc1ccc(S(=O)(=O)NC(=O)c2ccc(N3CCC([C@@H](O)c4ccccc4-c4ccc(Cl)cc4)CC3)cc2)cc1S(=O)(=O)C(F)(F)F [AZD4320] + Cc1cc2ncnn2cc1Nc1ncc2c(n1)n(C1CCOCC1)c(=O)n2C [AZD7648] (first compound max 1 µM, 7x7, partner max 10 µM)	-0.0011	0.0282	-0.0132	-0.04	-0.0346	-0.042	-0.058	-0.0225	-0.17	0.0165	-0.0439	-0.0588	0.0109	0.0237	-0.0399	-0.0613	0.0379	-0.0493	-0.0325	-0.0234
COc1cc2ncnc(Nc3ccc(F)c(Cl)c3)c2cc1OCCCN1CCOCC1 [Gefitinib] + CC(C)n1c(=O)n(C)c2cnc3cc(F)c(-c4ccc(OCCCN5CCCCC5)nc4)cc3c21 [AZD1390] (first compound max 10 µM, 7x7, partner max 0.3 µM)	-0.0344	-0.0419	-0.0578	-0.0812	-0.0317	-0.0373	-0.0425	-0.0491	-0.0387	-0.0685	-0.0574	-0.0625	-0.0801	-0.0238	-0.0515	-0.0586	-0.0626	-0.0557	-0.0593	-0.0583
C=CCn1c(=O)c2cnc(Nc3ccc(N4CCN(C)CC4)cc3)nc2n1-c1cccc(C(C)(C)O)n1 [AZD1775] + C1CN(CCC1(C(=O)N[C@@H](CCO)C2=CC=C(C=C2)Cl)N)C3=NC=NC4=C3C=CN4 [Capivasertib] (first compound max 3 µM, partner max 3 µM)	-0.0405	0.0122	0.102	0.0453	0.0666	-0.0474	0.0151	-0.0141	0.0513	-0.102	-0.0779	-0.0101	0.0467	-0.0726	0.0047	-0.0678	0.0099	0.0076	0.0046	0.0405
CN(CCO)CC[C@H](CSc1ccccc1)Nc1ccc(S(=O)(=O)NC(=O)c2ccc(N3CCC([C@@H](O)c4ccccc4-c4ccc(Cl)cc4)CC3)cc2)cc1S(=O)(=O)C(F)(F)F [AZD4320] + C[C@@H](Nc1cc(F)cc(F)c1)c1cc(C(=O)N(C)C)cc2c(=O)cc(N3CCOCC3)oc12 [AZD8186] (first compound max 1 µM, 7x7, partner max 3 µM)	-0.0054	0.0013	-0.0302	-0.0193	0.0784	-0.0261	0.0033	0.0607	-0.0224	-0.0314	0.0664	0.0059	0.0404	0.0013	-0.0231	-0.0581	0.175	0.0151	-0.0348	0.0327
COc1cccc(OCCCN)c1-c1cc(Nc2cnc(C#N)cn2)n[nH]1 [Prexasertib] + Cc1cc2ncnn2cc1Nc1ncc2c(n1)n(C1CCOCC1)c(=O)n2C [AZD7648] (first compound max 1 µM, 7x7, partner max 10 µM)	0.0235	-0.0076	0.0227	0.0141	-0.0097	-0.009	-0.0193	-0.0393	-0.0373	-0.0453	0.0127	-0.0207	0.025	-0.0048	-0.0481	-0.058	0.0025	-0.0566	-0.0182	-0.0198
CC1(C)CCC(CN2CCN(c3ccc(C(=O)NS(=O)(=O)c4ccc(NCC5CCOCC5)c([N+](=O)[O-])c4)c(Oc4cnc5[nH]ccc5c4)c3)CC2)=C(c2ccc(Cl)cc2)C1 [Venetoclax] + Cn1cnc2c(F)c(Nc3ccc(Br)cc3Cl)c(C(=O)NOCCO)cc21 [Selumetinib] (first compound max 1 µM, 7x7, partner max 3 µM)	-0.0148	0.0079	-0.0722	-0.0511	0.0117	-0.0185	-0.025	-0.0282	-0.0411	0.0045	0.0009	-0.0176	-0.0545	0.055	-0.0271	-0.0552	-0.0144	-0.0186	-0.0444	-0.0445
CC(=O)c1c(C)c2cnc(Nc3ccc(N4CCNCC4)cn3)nc2n(C2CCCC2)c1=O [Palbociclib] + CC1(C)CCC(CN2CCN(c3ccc(C(=O)NS(=O)(=O)c4ccc(NCC5CCOCC5)c([N+](=O)[O-])c4)c(Oc4cnc5[nH]ccc5c4)c3)CC2)=C(c2ccc(Cl)cc2)C1 [Venetoclax] (first compound max 10 µM, 7x7, partner max 1 µM)	-0.0161	-0.008	-0.0065	-0.0507	0.027	0.005	-0.0213	-0.0218	-0.0453	-0.0447	-0.0281	-0.0396	0.0482	-0.0012	-0.0306	-0.0825	-0.106	-0.0075	-0.0508	-0.0219
Cc1c2c(nn1C)CSCc1cc(n(C)n1)CSc1cc(c3ccccc3c1)OCCCc1c(C(=O)O)n(C)c3c-2c(Cl)ccc13 [AZD5991] + C[C@@H](Nc1cc(F)cc(F)c1)c1cc(C(=O)N(C)C)cc2c(=O)cc(N3CCOCC3)oc12 [AZD8186] (first compound max 1 µM, 7x7, partner max 3 µM)	-0.0338	0.0055	-0.0444	-0.0187	0.0058	0.0289	0.0026	-0.0169	-0.0304	-0.126	0.0505	-0.0533	0.0307	-0.037	-0.043	0.0066	-0.0074	-0.001	0.0237	0.0098
COc1nnc2ccc(N3CCC(c4ccc(OCCN5CCN(C)C(=O)[C@H]5C)cc4)CC3)nn12 [AZD5153] + Cc1c2c(nn1C)CSCc1cc(n(C)n1)CSc1cc(c3ccccc3c1)OCCCc1c(C(=O)O)n(C)c3c-2c(Cl)ccc13 [AZD5991] (first compound max 1 µM, 7x7, partner max 1 µM)	0.0117	-0.0035	-0.0303	-0.0548	-0.0475	-0.0133	-0.0137	0.0009	-0.0135	-0.0338	-0.0461	-0.0176	0.0517	-0.0162	-0.0081	-0.0181	0.0407	0.0021	-0.0234	0.0031
Cc1cc2ncnn2cc1Nc1ncc2c(n1)n(C1CCOCC1)c(=O)n2C [AZD7648] + CN(C)CCCOc1ccc(-c2ccc3ncc4c(c3c2)n(C2CCOCC2)c(=O)n4C)cn1 [AZD0156] (first compound max 10 µM, 7x7, partner max 1 µM)	0.0102	-0.003	0.0271	0.0399	0.0956	0.0614	0.0654	-0.0172	0.0037	-0.088	0.0393	-0.0058	-0.0088	-0.0326	-0.0343	-0.129	0.0236	-0.0317	-0.011	0.014
